The text below walks through data of article PMC9084593 (Cell reports, 2022).

Structures are written as SMILES.

One assay deals with GlmU (Streptococcus pneumoniae, UniProt Q04KU2). The assay can be described thus: DTNB colorimetric acetyltransferase assay, […] nm. The assay is classed as biochemical. The following applies: 0.4 mM GlcN-1-P, 1 mM acetyl CoA, 5 mM MgCl2, pH 7.5, 37°C.
Another assay addresses T1, GlmM (Streptococcus pneumoniae, UniProt Q04JI8).
T1 sequence (Q04JI8 1-450): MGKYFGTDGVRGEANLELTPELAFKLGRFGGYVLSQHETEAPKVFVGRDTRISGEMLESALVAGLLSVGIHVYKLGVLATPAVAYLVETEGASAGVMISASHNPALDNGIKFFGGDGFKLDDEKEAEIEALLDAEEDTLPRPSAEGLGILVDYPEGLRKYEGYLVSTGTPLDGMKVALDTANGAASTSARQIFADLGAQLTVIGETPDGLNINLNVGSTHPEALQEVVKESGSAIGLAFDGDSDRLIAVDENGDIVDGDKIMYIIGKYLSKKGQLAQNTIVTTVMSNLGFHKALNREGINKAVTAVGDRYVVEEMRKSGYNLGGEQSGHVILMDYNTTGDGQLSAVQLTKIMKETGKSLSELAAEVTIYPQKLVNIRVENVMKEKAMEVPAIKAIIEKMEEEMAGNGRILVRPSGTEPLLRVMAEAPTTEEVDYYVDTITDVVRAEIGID
The assay can be described thus: GlmU-coupled DTNB colorimetric mutase assay, […] nm. The assay is classed as biochemical. The following applies: 0.4 mM GlcN-6-P, 2 mM acetyl CoA, 5 mM MgCl2, pH 7.5, 37°C.

Sequence of GlmU (Q04KU2 whole entry): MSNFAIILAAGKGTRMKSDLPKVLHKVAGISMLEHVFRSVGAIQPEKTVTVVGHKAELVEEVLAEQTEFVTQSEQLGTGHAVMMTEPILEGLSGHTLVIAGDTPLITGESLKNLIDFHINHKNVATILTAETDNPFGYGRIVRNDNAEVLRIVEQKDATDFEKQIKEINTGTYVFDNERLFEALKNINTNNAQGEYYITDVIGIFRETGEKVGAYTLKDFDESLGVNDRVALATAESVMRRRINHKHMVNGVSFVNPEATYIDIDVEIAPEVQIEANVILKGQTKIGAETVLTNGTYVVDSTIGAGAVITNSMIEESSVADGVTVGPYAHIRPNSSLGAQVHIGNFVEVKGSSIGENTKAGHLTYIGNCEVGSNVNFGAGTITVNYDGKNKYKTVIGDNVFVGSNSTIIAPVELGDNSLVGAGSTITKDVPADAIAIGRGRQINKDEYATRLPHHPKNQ

On to `N[C@H]1[C@@H](OP(=O)(O)O)O[C@H](CO)[C@@H](O)[C@@H]1O` [GlcN-1-P], for which the “DTNB colorimetric acetyltransferase assay, 412 nm” value at GlmU is “The GlcN-1-P acetyltransferase activities of the GlmU and the GlmUE315AH330A variant were measured”.

`N[C@H]1C(O)O[C@H](COP(=O)(O)O)[C@@H](O)[C@@H]1O` (some centres unmarked) [GlcN-6-P]: the “GlmU-coupled DTNB colorimetric mutase assay, 412 nm” value at GlmM is “The glucosamine-6-phosphate (GlcN-6-P) mutase activity of GlmM was assayed”.
